In patent US11603380B2 (Centre national de la recherche scientifique, priority 2018, dated 2023):

Tested on: varicella-zoster virus (VZV) TK− (07/1)
Test: microbe, parasite or virus in culture
Type: cell-based
Settings: read-out: EC50 VZV TK− (07/1)

| Compound | EC50 |
| --- | --- |
| CCCCCCCCCCCCCCCCOCCCOP(=O)(CC=C(COC(C)=O)COc1cc(Cl)nc(N)n1)OCOC(=O)OC(C)C (mixture of isomers) [Compound (8), [(E/Z)-2′-[(2-amino-6-chloro-pyrimidin-4-yl)oxymethyl]-4-[3-hexadecoxypropoxy(isopropoxycarbonyloxymethoxy)phosphoryl]but-2′-enyl]acetate] | > 20 µM |
| CCCCCCCCCCCCCCCCOCCCOP(=O)(C/C=C/COc1cc(N)nc(N)n1)OCOC(=O)OC(C)C (stereo not drawn) [Compound (2), [[(E)-4-(2,6-diaminopyrimidin-4-yl)oxybut-2′-enyl]-(3-hexadecoxypropoxy)phosphoryl]oxymethyl isopropyl carbonate] | 0.24 µM |
| [(E/Z)-2-[[2-[bis(tert-butoxycarbonyl)amino]-6-methoxy-pyrimidin-4-yl]oxymethyl]-4-[3-hexadecoxypropoxy(isopropoxycarbonyloxymethoxy)phosphoryl]but-2′-enyl]acetate [Compound (7)] | > 20 µM |
